Source: patent US12161753B2, “Sustained release biodegradable intracanalicular inserts comprising a hydrogel and an active agent” (OCULAR THERAPEUTIX, INC., priority 2020, dated 2024)
Where “and” joins values, the source holds several entries; their conditions need not be identical. Equal entries are not always repeated. Where two headings read alike, the source gives them in different places.

Assays:
[1] = Example 3.2 proof-of-concept PK study: tear fluid concentration and drug released from inserts; format: in vivo, beagle dogs; details: beagle; insert 0.44 mg cyclosporine, 4a20K SG/trilysine; over 32 days
Text: Inserts were removed at 32 days to determine the amount of remaining drug compared to the administered dose.

[2] = beagle, insert 0.7 mg cyclosporine, 4a20K SAZ/trilysine
immunomodulation = details: Tang-Liu and Acheampong, Clin. Pharmacokinet. 44(3); cited from earlier work
[3] = for Cyclosporine per insert (left in removed insert), OD: beagles, initial dose 671±13 μg
[4] = Particle size of cyclosporine by laser diffraction (effect of surfactants); format: physicochemical; details: no surfactant

## CC=CCC(C)C(O)C1C(=O)NC(CC)C(=O)N(C)CC(=O)N(C)C(CC(C)C)C(=O)NC(C(C)C)C(=O)N(C)C(CC(C)C)C(=O)NC(C)C(=O)NC(C)C(=O)N(C)C(CC(C)C)C(=O)N(C)C(CC(C)C)C(=O)N(C)C(C(C)C)C(=O)N1C (centres unmarked) [Cyclosporine, 30-ethyl-33-(1-hydroxy-2-methylhex-4-enyl)-1,4,7,10,12,15,19,25,28-nonamethyl-6,9,18,24-tetrakis(2-methylpropyl)-3,21-di(propan-2-yl)-1,4,7,10,13,16,19,22,25,28,31-undecazacyclotritriacontane-2,5,8,11,14,17,20,23,26,29,32-undecone]
[1]
  Estimated daily delivered dose: 6.3 µg/day
[2]; inserts removed at 6 weeks
  Average amount of cyclosporine released in 6 weeks: 0.37 mg
[2]; over 6 weeks
  Estimated daily delivered dose: 8.8 µg/day
immunomodulation
  Cyclosporine concentration considered to be required for immunomodulation: 0.236 µg/mL
[3]; beagle, insert 0.67 mg cyclosporine, 4a20K SG/trilysine, 28 days
  Released amount: 3.4 µg
[3]; beagle, insert 0.67 mg cyclosporine, 4a20K SG/trilysine, 50 days
  Released amount: 3.5 µg
[3]; beagle, insert 0.67 mg cyclosporine, 4a20K SG/trilysine, over 28 and 50 days
  Daily estimated delivered dose: approximately 3.5 μg/day
[3]; insert removed at Day 28, single inserts
  Cyclosporine per insert (left in removed insert), OD: 596 µg
[3]; insert removed at Day 50, single inserts
  Cyclosporine per insert (left in removed insert), OD: 451 µg and 520 µg and 521 µg
[4]; in DIW
  D10 [Average]: 4 μm
[4]; in PBS
  D10 [Average]: 4.1 μm
